# Test results taken from patent US11535630B2, “Apelin receptor (APJ) agonists and uses thereof” (Research Triangle Institute, priority 2015, dated 2022).
# Biological target: T1, apelin receptor (APJ) (Homo sapiens, UniProt P35414)
# T1 sequence (P35414 1-380): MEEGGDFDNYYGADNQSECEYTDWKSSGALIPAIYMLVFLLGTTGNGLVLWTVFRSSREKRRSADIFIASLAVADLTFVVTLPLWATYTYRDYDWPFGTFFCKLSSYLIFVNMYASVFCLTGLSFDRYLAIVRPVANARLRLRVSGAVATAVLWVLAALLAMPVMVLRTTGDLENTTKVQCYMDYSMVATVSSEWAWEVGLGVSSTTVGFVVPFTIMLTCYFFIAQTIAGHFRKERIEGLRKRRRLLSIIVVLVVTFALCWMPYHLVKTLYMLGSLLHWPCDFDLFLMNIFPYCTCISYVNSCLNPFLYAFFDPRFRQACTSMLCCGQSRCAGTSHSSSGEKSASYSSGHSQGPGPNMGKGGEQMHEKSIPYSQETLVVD
# Assay: In vitro apelin agonist activity (methods of Giddings et al., Apelin-13 as positive control)
# Type: cell-based
# Settings: in vitro apelin agonist activity, methods of Giddings et al., Apelin-13 as positive control; read-out: EC50 (nM) Ave
# Text: Characterization of the Apelin Agonist Activity of the Compounds
# 1:39-47, the contents of which are hereby incorporated by reference in its entirety. Using the methods described in Giddings et al. and Apelin-13 as a positive control.
row,Structure (SMILES),EC50 [nM]
1,"COc1cccc(OC)c1-c1cc(C(=O)N[C@@H](CCc2ccc(F)cc2)CC(=O)Nc2nccs2)nn1C1CCCC1 [compound 417, (3S)-3-{[1-cyclopentyl-5-(2,6-dimethoxyphenyl)-1H-pyrazol-3-yl]formamido}-5-(4-fluorophenyl)-N-(1,3-thiazol-2-yl)pentanamide]",36
2,"O=C(O)C[C@H](CCN1CCOCC1)NC(=O)c1cc(-c2ccccc2C(F)(F)F)n(C2CCCC2)n1 [compound 486, (3S)-3-({1-cyclopentyl-5-[2-(trifluoromethyl)phenyl]-1H-pyrazol-3-yl}formamido)-5-(morpholin-4-yl)pentanoic acid]",931
3,"O=C(O)C[C@H](CCN1CCCC1)NC(=O)c1cc(-c2ccccc2C(F)(F)F)n(C2CCCC2)n1 [compound 499, (3S)-3-({1-cyclopentyl-5-[2-(trifluoromethyl)phenyl]-1H-pyrazol-3-yl}formamido)-5-(pyrrolidin-1-yl)pentanoic acid]",548
4,"COc1cccc(OC)c1-c1cc(C(=O)N[C@@H](CC2CCC2)C(=O)NC2CCC2)nn1C1CCCC1 [compound 377, (2S)-N,3-dicyclobutyl-2-{[1-cyclopentyl-5-(2,6-dimethoxyphenyl)-1H-pyrazol-3-yl]formamido}propanamide]",> 10000
5,"O=C(C[C@H](CCN1CCCCC1)NC(=O)c1cc(-c2ccc(F)cc2OCC(F)(F)F)n(C2CCCC2)n1)NC1CCC1 [compound 366, (3S)-N-cyclobutyl-3-({1-cyclopentyl-5[4-fluoro-2-(2,2,2-trifluoroethoxy)phenyl]-1H-pyrazol-3-yl]formamido)-5-(piperidin-1-yl)pentanamide]",> 10000
6,O=C(O)C[C@H](CCN1CCCC(F)(F)C1)NC(=O)c1cc(-c2cccnc2Cl)n(C2CCCC2)n1 [compound 468],1670
7,"CN(C(=O)C[C@H](CCN1CCCC[C@@H]1C(F)(F)F)NC(=O)c1cc(-c2ccccc2C(F)(F)F)n(C2CCCC2)n1)c1nccs1 [compound 489, (3S)-3-({1-cyclopentyl-5-[2-(trifluoromethyl)phenyl]-1H-pyrazol-3-yl}formamido)-N-methyl-N-(1,3-thiazol-2-yl)-5-[(2R)-2-(trifluoromethyl)piperidin-1-yl]pentanamide]",161
8,"O=C(C[C@H](CCN1CCCC(F)(F)C1)NC(=O)c1cc(-c2ccccc2C(F)(F)F)n(C2CCCC2)n1)Nc1ncco1 [compound 427, (3S)-3-({1-cyclopentyl-5-[2-(trifluoromethyl)phenyl]-1H-pyrazol-3-yl}formamido)-5-(3,3-difluoropiperidin-1-yl)-N-(1,3-oxazol-2-yl)pentanamide]",8.5
9,"CCC(CC)n1nc(C(=O)N(CC)[C@@H](CCN2CCCCC2)CC(=O)NC2CCC2)cc1-c1c(OC)cccc1OC [compound 346, (3S)-N-cyclobutyl-3-{1-[5-(2,6-dimethoxyphenyl)-1-(pentan-3-yl)-1H-pyrazol-3-yl]-N-ethylformamido}-5-(piperidin-1-yl)pentanamide]",> 10000
10,"CN(C(=O)C[C@H](CCN1CCCC(F)(F)C1)NC(=O)c1cc(-c2ccccc2Cl)n(C2CCCC2)n1)c1ncco1 [compound 452, (3S)-3-{[5-(2-chlorophenyl)-1-cyclopentyl-1H-pyrazol-3-yl]formamido}-5-(3,3-difluoropiperidin-1-yl)-N-methyl-N-(1,3-oxazol-2-yl)pentanamide]",70
11,"O=C(O)C[C@H](CCC1CCCCC1)NC(=O)c1cc(-c2ccccc2C(F)(F)F)n(C2CCCC2)n1 [compound 484, (3S)-5-cyclohexyl-3-({1-cyclopentyl-5-[2-(trifluoromethyl)phenyl]-1H-pyrazol-3-yl}formamido)pentanoic acid]",1520
12,"O=C(C[C@H](CCN1CC(F)(F)C1)NC(=O)c1cc(-c2ccccc2C(F)(F)F)n(C2CCCC2)n1)NC1CCC1 [compound 535, (3S)-N-cyclobutyl-3-({1-cyclopentyl-5-[2-(trifluoromethyl)phenyl]-1H-pyrazol-3-yl}formamido)-5-(3,3-difluoroazetidin-1-yl)pentanamide]",32
13,"CN(C(=O)C[C@H](CCN1CCOCC1)NC(=O)c1cc(-c2ccccc2C(F)(F)F)n(C2CCCC2)n1)c1nccs1 [compound 495, (3S)-3-({1-cyclopentyl-5-[2-(trifluoromethyl)phenyl]-1H-pyrazol-3-yl}formamido)-N-methyl-5-(morpholin-4-yl)-N-(1,3-thiazol-2-yl)pentanamide]",165
14,"O=C(C[C@H](CCN1CCCCC1)NC(=O)c1cc(-c2ccccc2Cl)n(C2CCCC2)n1)NC1CCC1 [compound 407, (3S)-3-{[5-(2-chlorophenyl)-1-cyclopentyl-1H-pyrazol-3-yl]formamido}-N-cyclobutyl-5-(piperidin-1-yl)pentanamide]",162

# The next lines start with the values.
row,EC50 [nM],Structure (SMILES)
1,299,"CC(C[C@@H](CC(=O)NC1CCC1)NC(=O)c1cc(-c2ccccc2C(F)(F)F)n(C2CCCC2)n1)N1CCC(F)(F)C1 (stereo partly drawn) [compound 573, (3S)-N-cyclobutyl-3-({1-cyclopentyl-5-[2-(trifluoromethyl)phenyl]-1H-pyrazol-3-yl}formamido)-5-(3,3-difluoropyrrolidin-1-yl)hexanamide]"
2,91,"C[C@H](C[C@@H](CC(=O)O)NC(=O)c1cc(-c2ccccc2C(F)(F)F)n(C2CCCC2)n1)N1CCCC(F)(F)C1 [compound 575, (3S,5R)-3-({1-cyclopentyl-5-[2-(trifluoromethyl)phenyl]-1H-pyrazol-3-yl}formamido)-5-(3,3-difluoropiperidin-1-yl)hexanoic acid]"
3,39,"O=C(C[C@H](CCNC(=O)C1CCCC1)NC(=O)c1cc(-c2ccccc2C(F)(F)F)n(C2CCCC2)n1)NC1CCC1 [compound 536, (3S)-N-cyclobutyl-3-({1-cyclopentyl-5-[2-(trifluoromethyl)phenyl]-1H-pyrazol-3-yl}formamido)-5-(cyclopentylformamido)pentanamide]"
4,401,"O=C(O)C[C@H](CCN1CCCC(F)(F)C1)NC(=O)c1cc(-c2ccccc2C(F)(F)F)n(CC2CC2)n1 [compound 557, (3S)-3-{[1-(cyclopropylmethyl)-5-[2-(trifluoromethyl)phenyl]-1H-pyrazol-3-yl]formamido}-5-(3,3-difluoropiperidin-1-yl)pentanoic acid]"
5,718,"CCCn1nc(C(=O)N[C@@H](CCN2CCCC(F)(F)C2)CC(=O)O)cc1-c1ccccc1C(F)(F)F [compound 580, (3S)-5-(3,3-difluoropiperidin-1-yl)-3-({1-propyl-5-[2-(trifluoromethyl)phenyl]-1H-pyrazol-3-yl}formamido)pentanoic acid]"
6,654,"O=C(O)C[C@H](CCN1CC[C@H](F)C1)NC(=O)c1cc(-c2ccccc2C(F)(F)F)n(C2CCCC2)n1 [compound 585, (3S)-3-({1-cyclopentyl-5-[2-(trifluoromethyl)phenyl]-1H-pyrazol-3-yl}formamido)-5-[(3S)-3-fluoropyrrolidin-1-yl]pentanoic acid]"
7,140,CC(C[C@@H](CC(=O)O)NC(=O)c1cc(-c2ccccc2C(C)(F)F)n(C2CCCC2)n1)N1C[C@H](F)[C@@H](F)C1 (stereo partly shown) [compound 595]
8,88,"C[C@H](C(=O)O)[C@H](CCN1CCCC(F)(F)C1)NC(=O)c1cc(-c2ccccc2C(F)(F)F)n(C2CCCC2)n1 [compound 596, (2S,3S)-3-({1-cyclopentyl-5-[2-(trifluoromethyl)phenyl]-1H-pyrazol-3-yl}formamido)-5-(3,3-difluoropiperidin-1-yl)-2-methylpentanoic acid]"
